One block for each molecule: values may come before it.
Assays:
Type in all cases: cell-based, human
ST-TS^Term#2 cells = assay: STB differentiation from TS^Term#2 cells with cyclocreatine; details: TS^Term#2 cells induced into STBs for 72 h with cyclocreatine (FIG. 11H)
Source text: FIGS. 11A to 11I show the regulation of STB differentiation by the GCM1-CKMT1 axis. […] TS^Term#1, TS^Term#2, and TS#1^GCM1-KO cells and their derivative STBs were subjected to RNA-seq analysis. […] TS^Term#1, TS^Term#2, and TS^Term#3 cells and their derivative STBs were subjected to immunoblotting and quantitative RT-PCR analyses of GCM1, hCGβ or CKMT1 proteins and transcripts. […] Scramble control and CKMT1-knockdown TS^Term#2 cells and their derivative STBs were stained with MitoTracker and CKMT1 Ab for immunofluorescence microscopy. Scale bars in FIGS. 11D and 11E, 100 μm. […] Scramble control and CKMT1-knockdown TS^Term#2 cells and their derivative STBs were subjected to immunoblotting and quantitative RT-PCR analyses of GCM1, hCGβ, LHB or CKMT1 proteins or transcripts. In a separated experiment, cells were stained with E-cadherin Ab for cell fusion analysis. Syncytial margins are marked with a stippled line. Cell fusion efficiency was measured by fusion index or the distribution of syncytia containing varying numbers of nuclei. Scale bar, 100 μm. […] Mock (ST)- or cyclocreatine-treated TS^Term#2 cells (ST+Cyclo-Cr) were induced into STBs for 72 h, followed by immunoblotting analysis of hCGβ protein. […]

Notch signaling = assay: Notch reporter (4xCSL-luciferase) assay; details: BeWo cells; 2 mM VPA, 48 hours (FIG. 6D)
Method: FIGS. 6A to 6I show the regulation of trophoblast stemness and differentiation by antagonism between ΔNp63α and GCM1. […] ITGA6-positive term CTBs were cultured in complete TS medium for 5 days and then maintained in the same medium or incomplete medium (vehicle alone without EGF and chemical inhibitors) for an additional 7 days. Cells were subjected to immunofluorescence microscopy of ΔNp63α, GCM1, and hCGβ. […] BeWo cells were incubated in complete or incomplete TS medium supplemented with the indicated growth factor or chemical inhibitor(s) for 24 h. Cells were harvested for quantitative RT-PCR analysis of the indicated stemness or differentiation genes. […] BeWo cells were treated with the indicated concentration of VPA for 24 hours and then harvested for immunoblotting and quantitative RT-PCR analyses of GCM1, ΔNp63α, and hCGβ. […] BeWo cells were transfected with 4XCSL-luciferase in the presence or absence of 2 mM VPA for 48 hours, followed by luciferase assays. […] EGFP-positive mock or Notch1IC-FLAG-expressing BeWo cells were treated with or without 50 μM FSK for 24 h, followed by immunoblotting and quantitative RT-PCR analyses of GCM1, hCGβ or HTRA4. […] Cells were then harvested for quantitative RT-PCR analysis of GCM1, ΔNp63α, HTRA4, hCGβ, and MKI67. […]

BeWo cells = assay: Expression of trophoblast stemness and differentiation genes in BeWo cells treated with EGF and chemical inhibitors
Method: FIGS. 6A to 6I show the regulation of trophoblast stemness and differentiation by antagonism between ΔNp63α and GCM1. […] ITGA6-positive term CTBs were cultured in complete TS medium for 5 days and then maintained in the same medium or incomplete medium (vehicle alone without EGF and chemical inhibitors) for an additional 7 days. Cells were subjected to immunofluorescence microscopy of ΔNp63α, GCM1, and hCGβ. […] BeWo cells were incubated in complete or incomplete TS medium supplemented with the indicated growth factor or chemical inhibitor(s) for 24 h. Cells were harvested for quantitative RT-PCR analysis of the indicated stemness or differentiation genes. […] BeWo cells were treated with the indicated concentration of VPA for 24 hours and then harvested for immunoblotting and quantitative RT-PCR analyses of GCM1, ΔNp63α, and hCGβ. […] BeWo cells were transfected with 4XCSL-luciferase in the presence or absence of 2 mM VPA for 48 hours, followed by luciferase assays. […] 293T cells were transfected with pHA-GCM1 and pNotch1IC-FLAG for 48 hours, followed by coimmunoprecipitation analysis and confocal microscopy using FLAG and HA mAbs and GCM1 Ab. […] EGFP-positive mock or Notch1IC-FLAG-expressing BeWo cells were treated with or without 50 μM FSK for 24 h, followed by immunoblotting and quantitative RT-PCR analyses of GCM1, hCGβ or HTRA4. […] BeWo cells were treated with or without 1 mM VPA in the presence or absence of 20 μM MG132 for 8 h and then subjected to immunoblotting analysis of GCM1 and Notch1IC. […] The EGFP-positive mock or Notch1IC-FLAG-expressing BeWo cells were transfected with the GCM1 promoter reporter plasmid E1bLUCGCM1-2K for 48 h and then subjected to luciferase assays. […] BeWo cells and ITGA6-positive term CTBs were cultured under normoxic or hypoxic conditions for 72 h and 7 days, respectively. Cells were then harvested for quantitative RT-PCR analysis of GCM1, ΔNp63α, HTRA4, hCGβ, and MKI67. Means and standard deviations obtained from three independent experiments are presented.
To study the effect of EGF and chemical inhibitors on trophoblast differentiation, BeWo cells were cultured in the complete TS medium or in the incomplete TS medium with EGF alone or the indicated chemical inhibitor(s) for 24 h. Cells were then harvested for quantitative RT-PCR or immunoblotting analysis of expression of ΔNp63α, eomesodermin (EOMES), E74-like factor 5 (ELF5) or GCM1 and its target genes.

JEG3 cells = assay: Immunoblotting and quantitative RT-PCR of trophoblast differentiation and stemness genes in JEG3 cells; details: 50 μM FSK or 1 mM DB-cAMP
Source text: FIGS. 2A to 2I show the physical and functional interaction between ΔNp63α and GCM1. […] First-trimester and term placental sections were stained with ΔNp63α and GCM1 antibodies (Abs) for immunofluorescence microscopy. Boxed areas are shown at higher magnification and presented below. Arrowhead, asterisk, and arrow indicate trophoblasts expressing ΔNp63α, GCM1, and both, respectively. Nuclei were stained with DAPI. Term placental sections were stained with CK7 Ab for trophoblasts and normal mouse IgG (M-IgG) and rabbit IgG (R-IgG) for negative controls. […] Mock and ΔNp63α-FLAG-expressing BeWo cells were subjected to immunoblotting (left) and quantitative RT-PCR (right) analyses of GCM1, HTRA4, and hCGβ proteins and transcripts. […] BeWo cells stably expressing scramble or GCM1 shRNA were subjected to immunoblotting (left) and quantitative RT-PCR (right) analyses of GCM1 and ΔNp63α proteins and transcripts. […] JEG3 cells were mock treated (DMSO or control buffer (CTRL)) or treated with 50 μM FSK or 1 mM DB-cAMP for 24 h, followed by immunoblotting and quantitative RT-PCR analyses of the indicated trophoblast differentiation and stemness proteins or transcripts. […]
FIGS. 3A to 3I show reciprocal regulation of GCM1 and ΔNp63α activities in trophoblast differentiation. […] Cell fusion was quantified by fusion index. […]

[1] = VPA 24 hours, dose-dependent (FIG. 6C)
[2] = EGF alone in incomplete TS medium, 24 h (FIG. 6B)
[3] = single agent in incomplete TS medium, 24 h (FIG. 6B)

Molecule: NC1=NCCN1CC(=O)O [cyclocreatine]
hCGβ, SYN1, and LHB expression (ST-TS^Term#2 cells): suppressed

Notch reporter plasmid p4×CSL-luciferase activity (Notch signaling): transactivated
Molecule: CCCC(CCC)C(=O)O [VPA, valproic acid]
GCM1 and hCGβ expression (BeWo cells; [1]): suppress
ΔNp63α expression (BeWo cells; [1]): increase

Molecule: CCCC(=O)Nc1ncnc2c1ncn2[C@@H]1O[C@@H]2COP(=O)(O)O[C@H]2[C@H]1OC(=O)CCC [DB-cAMP, dibutyryl-cAMP]
expression of ΔNp63α and trophoblast stemness genes ELF5, EOMES, and TEAD4 (JEG3 cells; 24 h (FIG. 2I)): decreased expression
expression of GCM1 and its target genes syncytin-1 (SYN1), hCGβ, HTRA4, PGF, and WNT10B (JEG3 cells; 24 h, immunoblotting and qRT-PCR (FIG. 2I)): increased expression

Molecule: epidermal growth factor (NSDSECPLSHDGYCLHDGVCMYIEALDKYACNCVVGYIGERCQYRDLKWWELR; not fully specified; Epidermal growth factor; UniProt P01133 971-1023, looked up) [EGF, growth factor in complete TS medium]
GCM1 and WNT10B expression (BeWo cells; [2]): suppressed
hCGβ expression (BeWo cells; [2]): enhanced

Molecule: Cc1c[nH]c(-c2cnc(NCCNc3ccc(C#N)cn3)nc2-c2ccc(Cl)cc2Cl)n1 [CHIR99021]
expression of ELF5, TEAD4, and AXIN2 (BeWo cells; [3]): upregulation
expression of WNT10B (BeWo cells; [3]): downregulation

Reference: patent US20220155314A1, “TROPHOBLAST STEM CELL, METHODS OF PREPARATION AND USES THEREOF” (Academia Sinica, priority 2020, published 2022)
